Measurements from paper PMC4858918, “Improving the N-terminal diversity of sansanmycin through mutasynthesis” (Microbial Cell Factories, 2016).
Values after ≈ are worked out from the molar mass of the structure shown.

How the values were obtained:
Assay in all cases: MIC, microplate Alamar blue assay (MABA)
Format in all cases: cell-based
[1] = tested on: M. tuberculosis FJ05195 (XDR clinical isolate); conditions: Mycobacterium tuberculosis, read-out: MIC M. tuberculosis FJ05195
[2] = tested on: M. tuberculosis FJ05189 (MDR clinical isolate); conditions: Mycobacterium tuberculosis, read-out: MIC M. tuberculosis FJ05189
[3] = tested on: M. tuberculosis FJ05120 (MDR clinical isolate); conditions: Mycobacterium tuberculosis, read-out: MIC M. tuberculosis FJ05120

Row | Compound | MIC [1] [mg/L] | MIC [2] [mg/L] | MIC [3] [mg/L]
1 | CC[C@@H](CO)NCCN[C@@H](CC)CO [Ethambutol] | > 128 | 2 (≈ 9.79 µM) | 0.5 (≈ 2.45 µM)
2 | NNC(=O)c1ccncc1 [Isoniazid] | > 128 | 8 (≈ 58.3 µM) | 16 (≈ 117 µM)
3 | CO[C@H]1/C=C/O[C@@]2(C)Oc3c(C)c(O)c4c(O)c(c(/C=N/N5CCN(C)CC5)c(O)c4c3C2=O)NC(=O)/C(C)=C\C=C\[C@H](C)[C@H](O)[C@@H](C)[C@@H](O)[C@@H](C)[C@H](OC(C)=O)[C@@H]1C [Rifampicin] | > 128 | 4 (≈ 4.86 µM) | > 128
4 | [H]/N=C(/N)N[C@H]1[C@H](O)[C@@H](O)[C@H](O[C@@H]2O[C@@H](C)[C@](O)(C=O)[C@H]2O[C@@H]2O[C@@H](CO)[C@H](O)[C@@H](O)[C@@H]2NC)[C@@H](N/C(N)=N\[H])[C@@H]1O [Streptomycin] | > 128 | < 0.06 | < 0.06
